pKi: −log10 of the molar value.
Molecular target: T1, Renilla luciferase (Renilla reniformis, UniProt P27652)
T1 sequence (P27652 1-311): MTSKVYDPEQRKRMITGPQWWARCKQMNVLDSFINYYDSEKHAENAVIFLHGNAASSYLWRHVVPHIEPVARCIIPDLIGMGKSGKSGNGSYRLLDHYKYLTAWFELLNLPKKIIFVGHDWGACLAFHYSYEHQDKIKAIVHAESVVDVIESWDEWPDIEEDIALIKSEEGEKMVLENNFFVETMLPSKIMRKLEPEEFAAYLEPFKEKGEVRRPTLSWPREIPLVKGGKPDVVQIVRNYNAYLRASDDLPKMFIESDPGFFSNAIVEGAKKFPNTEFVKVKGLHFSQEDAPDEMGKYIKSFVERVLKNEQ
Assay: Quench of Renilla luciferase luminescence by competitive inhibitors in detergent-containing quenching reagent (Example 1)
Format: biochemical
Description: Renilla luciferase (1×10^−9 M in Renilla Luciferase Lysis Buffer (Promega))+0.1% Prionex (PentaPharma) was added to Renilla Luciferase Assay Buffer (Promega) containing 3 μM coelenterazine-h. The initial Renilla luciferase-mediated luminescence was measured for 10 seconds using a Turner 20/20 n (Turner BioSystems). A quenching reagent containing 50 mM HEPES pH 7.4, 16 mM MgSO4, 1 mM CDTA, 0.5% Tergitol NP-9, 0.015% dodecyltrimethylammonium bromide, 10 mM thiourea, 0.05% Mazu-DF-204 (PGP), and 1.5 mM ATP (Pharmacia) was added to the reactions to reduce the Renilla luciferase-mediated luciferase luminescence. […] After the addition of the inhibitors, a second Renilla luciferase-mediated luminescence reading was taken. Unless otherwise specified, materials were obtained from Sigma-Aldrich.
The quenching agents described herein are effective in the presence of detergents used for cell lysis as well as other quenching agents.

[1] = Quench Reagent + 10 μM inhibitor
[2] = Quench Reagent + 100 μM inhibitor

Molecule	Reduction in Renilla luciferase luminescence after 2nd measurement [1]	Reduction in Renilla luciferase luminescence after 2nd measurement [2]	pKi (in the presence of lysing detergent and quenching reagent)
O=C(Cc1ccc(O)cc1)Nc1ncc(-c2ccc(O)cc2)nc1Cc1ccccc1 [coelenteramide]	18-fold	21-fold	< 4.00
methylether coelenterazine-hh	21-fold	34-fold	
